Tests used:
[1] = test system: human glioblastoma cell line; conditions: in vitro, platelet-derived growth factor; cited from earlier work
Solubility in water = type: physicochemical
[2] = Chemical stability of CCI-779 in solution (pH, chelating agent); type: physicochemical; conditions: citric acid at less than 0.01% w/v
From the text: Desirably, when a significant amount of water (e.g,. 40% v/v or greater) is present in the solvent blend of the pre-lyophilized solution, it is advantageous to adjust the pH to 4 to 6 as this is the range of maximum stability for CCI-779. In one embodiment, the pH is adjusted to a pH of about 5.5.
In some embodiments, components with chelating activity are included in the formulations of the invention as the sole “antioxidant component”. Typically, such metal-binding components, when acting as chelating agents are used in the lower end of the range of concentrations for the antioxidant component provided herein. […] Additionally, such chelating agents may be used in combination with other antioxidants as part of the antioxidant component of the invention. For example, an acceptable formulation may contain both citric acid and d,l-α-tocopherol. Optimal concentrations for the selected antioxidant(s) can be readily determined by one of skill in the art, based upon the information provided herein. All percentages are expressed a % w/v in the pre-lyophilized solution.
Desirably, the pre-lyophilization solution has a pH in the range of 4 to 6, which has been found by the inventor to improve the stability of CCI-779. Depending upon the components of the pre-lyophilization solution, the pH can be adjusted using any suitable inorganic or organic acid, or base, as needed. […]

[3] = test system: human tumor xenografts of diverse histological types; conditions: nude mice; cited from earlier work
[4] = test system: histologically diverse tumor cells; conditions: in vitro; cited from earlier work
orthotopic glioma = conditions: nude mice; cited from earlier work

CO[C@H]1C[C@@H]2CC[C@@H](C)[C@@](O)(O2)C(=O)C(=O)N2CCCC[C@H]2C(=O)O[C@H]([C@H](C)C[C@@H]2CC[C@@H](OC(=O)C(C)(CO)CO)[C@H](OC)C2)CC(=O)[C@H](C)/C=C(\C)[C@@H](O)[C@@H](OC)C(=O)[C@H](C)C[C@H](C)/C=C/C=C/C=C/1C [CCI-779, rapamycin 42-ester with 3-hydroxy-2-(hydroxymethyl)-2-methylpropionic acid]
growth factor-induced stimulation of cells [1]: markedly suppressed | solubility in water (Solubility in water): poor solubility in water | effect of citric acid on stability of CCI-779 [2]: enhanced the stability | activity against xenografts [3]: has activity | growth of tumor cells [4]: inhibit the growth | activity in orthotopic glioma model (orthotopic glioma): active

Source: US20050020615A1, “CCI-779 lyophilized formulations” (Wyeth, priority 2003, published 2005)
